Results reported in patent US9522908B2, “Ezrin inhibitors and methods of making and using” (Georgetown University, priority 2010, dated 2016).

Columns and labels:
[1] = target: actin; test: SPR binding to actin (negative control); details: data not shown
[2] = test system: PKC,τ, PKC,α and PKC,γ; test: Radioactive in vitro kinase assay of PKC isoforms with nonspecific substrate; type: biochemical
Procedure: (§1) FIG. 2 illustrates NSC305787 and NSC668394 inhibit ezrin T567 phosphorylation. (A) K7M2 metastatic OS cell line was treated with NSC305787 (10 μM) and NSC668394 (10 μM) for 6 hours. […] The effect of NSC305787 and NSC668394 on recombinant ezrin phosphorylation by recombinant PKC, was tested in an in vitro kinase assay. Phoshorylation of ezrin was detected by a phosphospecific antibody following PAGE and immunoblotting. Experiments were repeated three times and densitometric analysis of bands was used for calculation of % inhibition (graphs). Error bars represents s.d. from three independent experiments. Kinase activities of PKC,τ, PKC,α and PKC,γ were also evaluated with a nonspecific substrate in the presence of NSC305787 and NSC668394 by a radioactive in vitro kinase assay. Data analysis was done by using a sigmoidal dose-response equation where log EC50 for each curve with the ezrin substrate and the non-specific substrate were compared to each other (P=0.0118 for NSC305787 and P=0.0084 for NSC668394).
(§2) 500 ng of recombinant ezrin protein in kinase assay mix (200 μM ATP) was incubated with the compounds at 1-100 μM concentrations for 15 minutes on ice, then 50 ng PKC,τ (Millipore, Billerica, Mass.) was added. Reaction was performed at 30° C. for 30 min and stopped by adding 2× sample buffer. […]

[3] = target: T1, PKC,τ (Homo sapiens, UniProt P41743); test: SPR direct binding to PKC,τ (Biacore); details: data not shown
T1 sequence (P41743 1-596): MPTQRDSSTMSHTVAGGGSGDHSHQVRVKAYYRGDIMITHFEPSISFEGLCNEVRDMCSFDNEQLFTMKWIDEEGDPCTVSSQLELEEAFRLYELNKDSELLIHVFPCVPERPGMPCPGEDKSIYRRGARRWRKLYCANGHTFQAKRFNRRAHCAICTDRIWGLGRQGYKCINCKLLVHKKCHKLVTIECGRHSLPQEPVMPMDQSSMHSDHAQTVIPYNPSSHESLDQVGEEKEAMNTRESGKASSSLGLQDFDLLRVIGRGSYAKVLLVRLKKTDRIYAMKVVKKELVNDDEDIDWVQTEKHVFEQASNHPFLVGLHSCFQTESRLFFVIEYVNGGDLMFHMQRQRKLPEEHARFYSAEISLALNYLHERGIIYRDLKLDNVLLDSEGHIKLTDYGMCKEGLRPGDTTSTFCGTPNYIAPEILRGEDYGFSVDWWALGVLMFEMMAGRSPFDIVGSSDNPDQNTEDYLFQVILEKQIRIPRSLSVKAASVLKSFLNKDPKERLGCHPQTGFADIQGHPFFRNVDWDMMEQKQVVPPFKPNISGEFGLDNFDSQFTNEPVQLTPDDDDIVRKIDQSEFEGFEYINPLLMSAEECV

[4] = test system: K7M2 metastatic OS tumor cells; test: In vivo experimental lung metastasis model, K7M2 cells; parameters: species or system mice
Procedure: FIG. 6 illustrates NSC305787 and NSC668394 inhibit in vivo OS metastatic growth in lungs. (A) K7M2 metastatic OS tumor cells (1×10^6) were injected via tail vein. Vehicle (1% DMSO), NSC305787 (240 μg/kg) and NSC668394 (226 μg/kg) were injected 5 days a week intraperitoneally. Kaplan-Meier survival curves show percent survival for NSC305787 and NSC668394 treatment over time. Median survival of vehicle, NSC305787 and NSC668394 treated K7M2 cells were 28.5, 50, and 49 days after tumor cell injection. […] (B) Fluorescence pictures of whole lungs are given. […] (C) GFP expressing ezrin independent MNNG, human OS cells were injected to mice and treated with vehicle (1% DMSO), NSC305787 (240 μg/kg) and NSC668394 (226 μg/kg). Survival of each group is not different probably because MNNG is an ezrin independent cell line. Median survival of vehicle, NSC305787 and NSC668394 treated MNNG cells were 50.5, 49, and 48.5 days after tumor cell injection. (D) Fluorescent images of the lung tissues of this group are given.
GFP expressing K7M2 or MNNG tumor cells (1×10^6) were delivered by tail vein to nude mice. One day after injection, vehicle, NSC305787 (240 μg/kg/inj) and […] (226 μg/kg/inj) were injected 5 days a week intraperitoneally.

[5] = test system: K12 cells; test: Invasion of HUVEC monolayer by K12 cells (ECIS, xCELLigence); type: cell-based
Procedure: FIG. 3 illustrates NSC305787 and NSC668394 inhibit ezrin mediated invasion of OS cells. (A) Endogenous ezrin protein levels in K12 and K7M2 cells are shown. Equal loading is determined by blotting with an actin antibody. […] Error bars represent standard deviation from duplicate data points. The experiments were performed in duplicates. Cell index is a measurement parameter with no units. In this assay a decrease in cell index represents invasion of HUVEC layer by OS cells. It is measured according to the following formula: Cell index=((Rt−R0)/F where, Rt is resistance at time point t, R0 is background resistance (measured with media alone, no cells), and F is frequency at which measurement is taken (10 kHz).
The anti-invasive potential of NSC305787 and NSC668394 were evaluated by using electric cell impedance sensing (ECIS) on a Roche xCELLigence system (Roche, Indianapolis, Ind.). Briefly, HUVEC cells (25,000/well) were seeded in a 96-well plate in EGM-2 media (Lonza, Basel, CH). Following formation of a confluent HUVEC monolayer (app 32 hrs), EGM-2 media was aspirated and a layer of OS cells (10,000 cells/well) was added in DMEM media containing the compounds. This time point was accepted as 0 hr of treatment and invasion was monitored during the following 6 hrs by measuring changes in resistance at the cell-electrode interphase.

[6] = target: T2, ezrin T567 phosphorylation by PKC,τ (Mus musculus, UniProt P26040); test: In vitro kinase assay: recombinant ezrin T567 phosphorylation by PKC,τ; type: biochemical; details: phosphospecific antibody immunoblot densitometry
T2 construct: Recombinant full length ezrin was prepared to a concentration of 100 μg/ml; host or cells: E. coli M15pREP4 (ezrin)
T2 sequence (P26040 whole entry): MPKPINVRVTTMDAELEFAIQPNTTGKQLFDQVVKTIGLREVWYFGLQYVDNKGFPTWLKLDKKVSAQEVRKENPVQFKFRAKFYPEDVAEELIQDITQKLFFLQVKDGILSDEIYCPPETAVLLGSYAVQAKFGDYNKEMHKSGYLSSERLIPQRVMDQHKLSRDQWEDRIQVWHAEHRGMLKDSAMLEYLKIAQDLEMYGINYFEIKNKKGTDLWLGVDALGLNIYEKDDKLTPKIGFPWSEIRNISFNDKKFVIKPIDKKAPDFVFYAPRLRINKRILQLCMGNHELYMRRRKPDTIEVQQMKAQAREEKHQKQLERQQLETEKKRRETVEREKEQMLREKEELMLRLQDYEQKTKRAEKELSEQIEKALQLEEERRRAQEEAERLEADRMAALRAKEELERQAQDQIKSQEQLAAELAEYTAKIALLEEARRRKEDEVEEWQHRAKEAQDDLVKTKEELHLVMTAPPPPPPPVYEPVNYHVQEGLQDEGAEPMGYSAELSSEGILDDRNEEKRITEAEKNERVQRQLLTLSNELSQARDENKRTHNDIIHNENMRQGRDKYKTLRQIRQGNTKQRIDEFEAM
Procedure: as §1, §2

Q: For OC(c1cc(C23CC4CC(CC(C4)C2)C3)nc2c(Cl)cc(Cl)cc12)C1CCCCN1 (stereo not drawn) [NSC305787], which Kd [1] is on record?
A: The Kd was 91.4 µM.

Q: And the “concentration to inhibit all three PKC isoforms” value ([2]; nonspecific substrate)?
A: Its value is ~50 µM.

Q: And the “fold higher concentration to inhibit PKC isoforms than to inhibit ezrin phosphorylation” value ([2]; nonspecific substrate vs ezrin substrate)?
A: Its value is 10 fold.

Q: What about the Kd [3] of the same molecule?
A: Its Kd is 172 µM.

Q: And the “number of GFP expressing metastatic foci in lung tissues” value ([4]; K7M2 cells)?
A: The value was “significant decrease”.

Q: And the “median survival after tumor cell injection” value ([4]; K7M2 cells by tail vein, i.p. 5 days a week, vehicle 28.5 days)?
A: The value was 50 days.

Q: What about the “invasion of K12 cells” value ([5]; 1 μM) of the same molecule?
A: The value was “did not have any effect”.

Q: And the “invasion of K12 cells” value ([5]; 10 μM)?
A: The value was “did not have any effect”.

Q: What about the IC50 [6] of the same molecule?
A: Its IC50 is 5.5 µM.
